Data: patent US7338977B2, “Anti-viral compounds” (Aids Care Pharma Limited, priority 2003, dated 2008)
≈ marks a conversion by molar mass, not a printed value.

Key:
[1] = test system: wild-type HIV-1 (111a); assay: Test 2: syncytium formation in HIV-1 infected CEM cell cultures; assay type: cell-based; conditions: CEM cells, 4 days at 37° C., syncytium formation inhibited by 50%; for EC50: Human immunodeficiency virus 1, CCRF-CEM, 96 h
Procedure: (§1) Two tests were performed: Test 1 was performed using infected blood, while Test 2 used cell cultures.
The results shown in Table 1 for test 2 were obtained by testing cell cultures in accordance with the following procedure.
CEM cells were suspended at approximately 250,000 cells per milliliter of culture medium and infected with wild-type HIV-1 (111a) at approximately 100 times the 50% cell culture infective dose (CCID50) per milliliter. Then 100 μl of the infected cell suspensions were added to 200 μl microtiter plate wells containing 100 μl of an appropriate dilution of the test compounds. After 4 days incubation at 37° C. the cell cultures were microscopically examined for syncytium formation.

[2] = target: T1, viral envelope protein gp120 interaction with the cellular receptor protein CD4 (Human immunodeficiency virus type 1 group M subtype B, UniProt P04578); assay: biochemical; assay type: binding, HIV; conditions: for activity in words, compared with AC-1: summary of Table 1, both tests
T1 construct: viral envelope protein gp120
Procedure: as §1
All stocks solutions were made 25 mM in distilled water and tested at same concentrations.
The procedure was carried out as follows: • 1 Plastic plates were coated with cellular receptor protein CD4. • 2 The plates were washed well before adding a predetermined, appropriate quantity of viral envelope protein gp120 for binding to CD4. • 3 To see inhibition by compounds, different concentrations were added a few minutes before adding gp120. • 4 The mixture was incubated at 37° C. for binding. • 5 The plates were then flashed well and bound gp120 was detected by reaction with anti-HIV antibodies, incubated for 12 hours at 4° C. • 6 The amount of antibody bound was detected by adding anti-Human antibodies attached to an enzyme horse raddish peroxidase. • 7 After another incubation and wash, the quantity of the enzyme was measured by adding substrate o-phenyl diamine (OPD). • 8 The colour developed was read at 492 nm. • 9 All incubations took three days for adding different reagents. The percentage of inhibition by compounds, was calculated from the standard curve obtained by using different dilutions of gp120 alone. Test 2

[3] = test system: HIV; conditions: cited from earlier work; for REDUCTION IN VIRAL LOAD: patients, drug used on its own
[4] = human, in vivo; cited from earlier work
[5] = test system: cell growth; conditions: cited from earlier work
[6] = test system: HIV-1; assay: Anti-HIV EC50 in cell cultures (benchmark AZT); conditions: in vitro
From the text: The antigen Agp120 assay—the virus related antigen—is related to the number of virus particles produced by measuring glycoprotein gp120 in infected cell cultures.
The therapeutic index is selected so as not to damage healthy cells.

[7] = test system: HIV-1; conditions: cells protected from HIV infection, cell cultures; cited from earlier work
[8] = cited from earlier work

## O=C(O)COc1cc(OCC(=O)O)c2cc1C(c1ccc(F)cc1)c1cc(c(OCC(=O)O)cc1OCC(=O)O)C(c1ccc(F)cc1)c1cc(c(OCC(=O)O)cc1OCC(=O)O)C(c1ccc(F)cc1)c1cc(c(OCC(=O)O)cc1OCC(=O)O)C2c1ccc(F)cc1 (centres unmarked) [BC070202A]
[1]
  EC50: ≥ 20 µg/mL
[2]
  EC50: 75 µM
  activity in words, compared with AC-1: much less active than the compound AC-1
[2]; Conc 12.5 um
  % inhibition of gp120/CD4 binding: 24%
[2]; Conc 25 um
  % inhibition of gp120/CD4 binding: 24%
[2]; Conc 50 um
  % inhibition of gp120/CD4 binding: 31%
[2]; Conc 100 um
  % inhibition of gp120/CD4 binding: 54%

## CC(C)c1nc(CN(C)C(=O)N[C@H](C(=O)N[C@@H](Cc2ccccc2)C[C@H](O)[C@H](Cc2ccccc2)NC(=O)OCc2cncs2)C(C)C)cs1 [Ritonavir]
[3]
  REDUCTION IN VIRAL LOAD: 99%
[4]
  SIDE EFFECTS: diarrhoea nausea,

## Cc1c(O)cccc1C(=O)N[C@@H](CSc1ccccc1)[C@H](O)CN1C[C@H]2CCCC[C@H]2C[C@H]1C(=O)NC(C)(C)C [Nelfinavir]
[3]
  REDUCTION IN VIRAL LOAD: 99%
[4]
  SIDE EFFECTS: diarrohea, nausea

## O=C(O)COc1c(O)c2cc(c1O)C(c1ccc(F)cc1)c1cc(c(O)c(OCC(=O)O)c1O)C(c1ccc(F)cc1)c1cc(c(O)c(OCC(=O)O)c1O)C(c1ccc(F)cc1)c1cc(c(O)c(OCC(=O)O)c1O)C2c1ccc(F)cc1 (centres unmarked) [BC130202A]
[1]
  EC50: 10 µg/mL (≈ 8.61 µM)
[2]
  EC50: 5 µM
  activity in words, compared with AC-1: active
[2]; Conc 1.56 um
  % inhibition of gp120/CD4 binding: 19%
[2]; Conc 3.125 um
  % inhibition of gp120/CD4 binding: 32%
[2]; Conc 6.25 um
  % inhibition of gp120/CD4 binding: 46%
[2]; Conc 12.5 um
  % inhibition of gp120/CD4 binding: 56%
[2]; Conc 25 um
  % inhibition of gp120/CD4 binding: 70%
[2]; Conc 50 um
  % inhibition of gp120/CD4 binding: 82%
[2]; Conc 100 um
  % inhibition of gp120/CD4 binding: 90%

## Nc1nc(NC2CC2)c2ncn([C@H]3C=C[C@@H](CO)C3)c2n1 [Abacavir]
[3]
  REDUCTION IN VIRAL LOAD: 50–90%

## CC(C)(C)NC(=O)[C@@H]1C[C@@H]2CCCC[C@@H]2CN1C[C@@H](O)[C@H](Cc1ccccc1)NC(=O)[C@H](CC(N)=O)NC(=O)c1ccc2ccccc2n1 [Saquinavir]
[3]
  REDUCTION IN VIRAL LOAD: 99%
[4]
  SIDE EFFECTS: loose stools, nausea,

## CC(C)(C)NC(=O)[C@@H]1CN(Cc2cccnc2)CCN1C[C@@H](O)C[C@@H](Cc1ccccc1)C(=O)N[C@H]1c2ccccc2C[C@H]1O [Indinavir]
[3]
  REDUCTION IN VIRAL LOAD: 99%

## Cc1cn([C@H]2C[C@H](N=[N+]=[N-])[C@@H](CO)O2)c(=O)[nH]c1=O [Zidovudine]
[3]
  REDUCTION IN VIRAL LOAD: 50–90%
[3]; used by itself
  benefit in treating HIV-infected individuals: no benefits in treating HIV-infected individuals
[5]
  CC50: > 1 mM
[6]
  Therapeutic index (TC50/EC50 ratio): > 62,500
[7]
  EC50: ~16 nM

## Nc1ccn([C@@H]2CS[C@H](CO)O2)c(=O)n1 [Lamivudine]
[4]
  SIDE EFFECTS: gastrointestinal

## Nc1ccn([C@H]2CC[C@@H](CO)O2)c(=O)n1 [Zalcitabine]
[3]
  REDUCTION IN VIRAL LOAD: 50–90%

## Cc1ccnc2c1NC(=O)c1cccnc1N2C1CC1 [Nevirapinc]
[3]
  REDUCTION IN VIRAL LOAD: 50–90%
[4]
  SIDE EFFECTS: skin reaction

## O=C1Nc2ccc(Cl)cc2[C@@](C#CC2CC2)(C(F)(F)F)O1 [Efavirenz]
[3]
  REDUCTION IN VIRAL LOAD: 50–90%
[4]
  SIDE EFFECTS: skin reaction

## dextran sulphate
[8]; before entry into the plasma
  stability after oral intake: degrades after oral intake before entry into the plasma
[8]
  oral absorption: poorly absorbed orally

## CC(C)CN(C[C@@H](O)[C@H](Cc1ccccc1)NC(=O)O[C@H]1CCOC1)S(=O)(=O)c1ccc(N)cc1 [Amprenavir]
[3]
  REDUCTION IN VIRAL LOAD: 99%
[4]
  SIDE EFFECTS: severe rash

## Cc1cn([C@H]2C=C[C@@H](CO)O2)c(=O)[nH]c1=O [Stavudine]
[3]
  REDUCTION IN VIRAL LOAD: 50–90%
[4]
  SIDE EFFECTS: peripheral neuropathy

## dodecapotassium acetate of p-bromopyrogallol P—F-phenyl tetramer [AC-1]
[1]
  Test 2 EC50: 4 µg/mL
[2]; Conc 0.39 um
  % inhibition of gp120/CD4 binding: 48%
[2]; Conc 0.78 um
  % inhibition of gp120/CD4 binding: 55%
[2]; Conc 1.56 um
  % inhibition of gp120/CD4 binding: 62%
[2]; Conc 3.125 um
  % inhibition of gp120/CD4 binding: 70%
[2]; Conc 6.25 um
  % inhibition of gp120/CD4 binding: 82%
[2]; Conc 12.5 um
  % inhibition of gp120/CD4 binding: 86%
[2]; Conc 25 um
  % inhibition of gp120/CD4 binding: 91%
[2]; Conc 50 um
  % inhibition of gp120/CD4 binding: 93%
[2]; Conc 100 um
  % inhibition of gp120/CD4 binding: 96%

## CC(C)Nc1cccnc1N1CCN(C(=O)c2cc3cc(NS(C)(=O)=O)ccc3[nH]2)CC1 [Delaviridine]
[3]
  REDUCTION IN VIRAL LOAD: 50–90%
[4]
  SIDE EFFECTS: skin reaction

## O=c1[nH]cnc2c1ncn2[C@H]1CC[C@@H](CO)O1 [Didanosine]
[3]
  REDUCTION IN VIRAL LOAD: 50–90%
[4]
  SIDE EFFECTS: peripheral neuropathy, nausea vomiting, pancreatis
